Experiments:
Assay in all cases: ATP formation, hexokinase/G6PDH end-point assay
Type in all cases: biochemical
Conditions in all cases: 2.5 mM ADP, 2 mM MgCl2, 100 mM KCl, HEPES pH 7.4, 5-65 °C
[1] = target: T1, AKm (Bacillus subtilis, UniProt P16304)
T1 construct: gene adk; full length (residues 1-217), pET11a, E. coli BL21 (DE3); Affi-Gel blue and size exclusion, no tag mentioned

[2] = target: T2, AKp (Sporosarcina globispora, UniProt P84139)
T2 construct: gene adk; full length (residues 1-217), pET30a, E. coli BL21 (DE3); Affi-Gel blue and size exclusion, no tag mentioned

[3] = target: T3, AKm (Bacillus subtilis, UniProt P16304, I26T)
T3 construct: gene adk; full length (residues 1-217), pET11a, E. coli BL21 (DE3); Affi-Gel blue and size exclusion, no tag mentioned

[4] = target: T4, AKp (Sporosarcina globispora, UniProt P84139, T26I)
T4 construct: gene adk; full length (residues 1-217), pET30a, E. coli BL21 (DE3); Affi-Gel blue and size exclusion, no tag mentioned
T4 sequence (P84139 whole entry T26I, the tested form may be a part): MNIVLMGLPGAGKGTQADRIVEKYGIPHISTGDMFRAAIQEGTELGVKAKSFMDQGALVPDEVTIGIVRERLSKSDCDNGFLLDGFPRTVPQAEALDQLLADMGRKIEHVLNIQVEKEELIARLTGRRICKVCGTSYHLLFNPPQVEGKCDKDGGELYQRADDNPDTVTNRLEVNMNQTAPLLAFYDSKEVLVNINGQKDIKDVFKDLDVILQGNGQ

T3 sequence (P16304 whole entry I26T, the tested form may be a part): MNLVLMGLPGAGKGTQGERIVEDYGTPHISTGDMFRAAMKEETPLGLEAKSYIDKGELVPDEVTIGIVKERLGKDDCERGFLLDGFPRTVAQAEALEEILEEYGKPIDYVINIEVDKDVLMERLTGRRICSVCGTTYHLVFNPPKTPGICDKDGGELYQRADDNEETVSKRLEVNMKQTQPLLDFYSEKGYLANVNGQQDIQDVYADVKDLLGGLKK
T2 sequence (P84139 whole entry, the tested form may be a part): as the sequence (P84139 whole entry T26I, the tested form may be a part) above, with I26T counted along it
T1 sequence (P16304 whole entry, the tested form may be a part): as the sequence (P16304 whole entry I26T, the tested form may be a part) above, with T26I counted along it

Nc1ncnc2c1ncn2[C@@H]1O[C@H](COP(=O)(O)OP(=O)(O)O)[C@@H](O)[C@H]1O [ADP]
ATP formation, hexokinase/G6PDH end-point assay [1]: The activity assays of WT AKm and the I26T mutant also showed consistent results
ATP formation, hexokinase/G6PDH end-point assay [2]: we determined the temperature dependence of the activities of WT AKp and its T26I mutant
ATP formation, hexokinase/G6PDH end-point assay [3]: The activity assays of WT AKm and the I26T mutant also showed consistent results
ATP formation, hexokinase/G6PDH end-point assay [4]: we determined the temperature dependence of the activities of WT AKp and its T26I mutant
